# Reference: patent publication US20060247227A1, “Substituted piperidines as histamine h3 receptor ligands” (priority 2003, published 2006)
# Counter-ions that a name gives are not always drawn.
# Target: T1, histamine H3 receptor (Homo sapiens, UniProt Q9Y5N1)
# T1 construct: expressed in transfected cells; host or cells: CHO K1 cells carrying pSwitch, transfected with pGeneH3 and induced with mifepristone; clone 3H3; membranes
# Experiment: Histamine H3 functional antagonist assay ([35S]GTPγS, SPA, membranes of CHO K1 cells expressing the receptor)
# Format: biochemical
# Settings: histamine-stimulated GTPγS binding, membranes with human H3
# From the text: A membrane preparation containing histamine H3 receptors may be prepared in accordance with the following procedures:
# (i) Generation of Histamine H3 Cell Line
# DNA encoding the human histamine H3 gene (Huvar, A. et al. (1999) Mol. Pharmacol. 55(6), 1101-1107) was cloned into a holding vector, pCDNA3.1 TOPO (InVitrogen) and its cDNA was isolated from this vector by restriction digestion of plasmid DNA with the enzymes BamH1 and Not-1 and ligated into the inducible expression vector pGene (InVitrogen) digested with the same enzymes. The GeneSwitch™ system (a system where in transgene expression is switched off in the absence of an inducer and switched on in the presence of an inducer) was performed as described in U.S. Pat. Nos. 5,364,791; 5,874,534; and 5,935,934. Ligated DNA was transformed into competent DH5α E. coli host bacterial cells and plated onto Luria Broth (LB) agar containing Zeocin™ (an antibiotic which allows the selection of cells expressing the sh ble gene which is present on pGene and pSwitch) at 50 μg ml^−1. Colonies containing the re-ligated plasmid were identified by restriction analysis. DNA for transfection into mammalian cells was prepared from 250 ml cultures of the host bacterium containing the pGeneH3 plasmid and isolated using a DNA preparation kit (Qiagen Midi-Prep) as per manufacturers guidelines (Qiagen).
# CHO K1 cells previously transfected with the pSwitch regulatory plasmid (InVitrogen) were seeded at 2×10e6cells per T75 flask in Complete Medium, containing Hams F12 (GIBCOBRL, Life Technologies) medium supplemented with 10% v/v dialysed foetal bovine serum, L-glutamine, and hygromycin ([…]), 24 hours prior to use. Plasmid DNA was transfected into the cells using Lipofectamine plus according to the manufacturers guidelines (InVitrogen). 48 hours post transfection cells were placed into complete medium supplemented with […] Zeocin™.
# 10-14 days post selection 10 nM Mifepristone (InVitrogen), was added to the culture medium to induce the expression of the receptor. 18 hours post induction cells were detached from the flask using ethylenediamine tetra-acetic acid (EDTA; 1:5000; InVitrogen), following several washes with phosphate buffered saline pH 7.4and resuspended in Sorting Medium containing Minimum Essential Medium (MEM), without phenol red, and supplemented with Earles salts and 3% Foetal Clone II (Hyclone). Approximately 1×10e7 cells were examined for receptor expression by staining with a rabbit polyclonal antibody, 4a, raised against the N-terminal domain of the histamine H3 receptor, incubated on ice for 60 minutes, followed by two washes in sorting medium. Receptor bound antibody was detected by incubation of the cells for 60 minutes on ice with a goat anti rabbit antibody, conjugated with Alexa 488 fluorescence marker (Molecular Probes). Following two further washes with Sorting Medium, cells were filtered through a 50 μm Filcon™ (BD Biosciences) and then analysed on a FACS Vantage SE Flow Cytometer fitted with an Automatic Cell Deposition Unit. Control cells were non-induced cells treated in a similar manner. Positively stained cells were sorted as single cells into 96-well plates, containing Complete Medium containing 500 μg ml^−1 Zeocin™ and allowed to expand before reanalysis for receptor expression via antibody and ligand binding studies. One clone, 3H3, was selected for membrane preparation.
# (ii) Membrane Preparation from Cultured Cells
# All steps of the protocol are carried out at 4° C. and with pre-cooled reagents. The cell pellet is resuspended in 10 volumes of buffer A2 containing 50 mM N-2-hydroxyethylpiperazine-N′-2-ethanesulfonic acid (HEPES) (pH 7.40) supplemented with […] leupeptin (acetyl-leucyl-leucyl-arginal; Sigma L2884), 25 μg/ml bacitracin (Sigma B0125), 1 mM ethylenediamine tetra-acetic acid (EDTA), 1 mM phenylmethylsulfonyl fluoride (PMSF) and 2×10e-6M pepstain A (Sigma). […]
# T1 sequence (Q9Y5N1 whole entry): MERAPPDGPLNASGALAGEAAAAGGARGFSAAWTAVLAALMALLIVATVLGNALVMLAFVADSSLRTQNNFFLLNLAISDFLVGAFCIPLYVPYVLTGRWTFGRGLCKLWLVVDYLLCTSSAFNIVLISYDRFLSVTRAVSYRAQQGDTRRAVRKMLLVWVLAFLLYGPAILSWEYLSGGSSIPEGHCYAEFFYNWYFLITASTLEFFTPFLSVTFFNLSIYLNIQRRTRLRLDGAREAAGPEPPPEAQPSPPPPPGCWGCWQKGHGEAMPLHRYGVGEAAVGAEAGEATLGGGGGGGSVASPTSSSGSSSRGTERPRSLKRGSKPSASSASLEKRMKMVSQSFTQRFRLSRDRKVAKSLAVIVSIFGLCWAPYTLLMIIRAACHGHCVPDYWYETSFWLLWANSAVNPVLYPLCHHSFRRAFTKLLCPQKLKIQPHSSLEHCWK
row,Structure (SMILES),Ki [nM]
1,"CC(C)N1CCC(OC2CCN(c3ccc(C(=O)NCCCCl)cc3)CC2)CC1 [Example E106, N-(3-Chloropropyl)-4-(4-{[1-(1-methylethyl)-4-piperidinyl]oxy}-1-piperidinyl)benzamide hydrochloride]",≤ 1
2,Cc1ncc(-c2ccc(N3CCC(OC4CCN(C(C)C)CC4)CC3)cc2)o1 [Example E20],< 10
3,O=C(NC1CCCC1)c1ccc(N2CCC(OC3CCN(C4CCC4)CC3)CC2)cn1 [Example E46],≤ 1
4,CNC(=O)c1ccc(N2CCC(OC3CCN(C4CCC4)CC3)CC2)nc1 [Example E54],≤ 1
5,c1ncc(-c2ccc(N3CCC(OC4CCN(C5CCC5)CC4)CC3)cc2)o1 [Example E29],≤ 1
6,c1coc(-c2ccc(N3CCC(OC4CCN(C5CCC5)CC4)CC3)cc2)n1 [Example E21],≤ 1
7,"O=C(NCCCCl)c1ccc(N2CCC(OC3CCN(C4CCC4)CC3)CC2)cn1 [Example E107, N-(3-Chloropropyl)-5-{4-[(1-cyclobutyl-4-piperidinyl)oxy]-1-piperidinyl}-2-pyridinecarboxamide hydrochloride]",≤ 1
8,"N#Cc1ccc(N2CCC(OC3CCN(C4CCC4)CC3)CC2)cn1 [Example E47, 5-{4-[(1-Cyclobutyl-4-piperidinyl)oxy]-1-piperidinyl}-2-pyridinecarbonitrile hydrochloride]",≤ 1

# Next, values leading:
row,Ki [nM],Structure (SMILES)
1,< 10,CC(C)N1CCC(OC2CCN(c3ccc(C(=O)N4CCCC4)cn3)CC2)CC1 [Example E52]
2,≤ 1,"CC(C)N1CCC(OC2CCN(c3cnc(C(F)(F)F)cn3)CC2)CC1 [Example E85, 2-(4-[1-(1-Methylethyl)-4-piperidinyl]oxy}-1-piperidinyl)-5-(trifluoromethyl)pyrazine hydrochloride]"
3,< 10,CNC(=O)c1ccc(N2CCC(OC3CCN(C(C)C)CC3)CC2)nc1 [Example E50]
4,< 10,"CC(C)N1CCC(OC2CCN(c3ccc(C#N)cn3)CC2)CC1 [Example E1, 6-(4-([1-(1-Methylethyl)-4-piperidinyl]oxy}-1-piperidinyl)-3-pyridinecarbonitrile hydrochloride]"
5,≤ 1,CCNC(=O)c1cnc(N2CCC(OC3CCN(C(C)C)CC3)CC2)cn1 [Example E76]
6,≤ 1,O=C(c1ccc(N2CCC(OC3CCN(C4CCC4)CC3)CC2)nc1)N1CCCC1 [Example E56]
7,< 10,CC(C)N1CCC(OC2CCN(c3cccc(C(=O)N4CCCC4)n3)CC2)CC1 [Example E60]
8,≤ 1,CC(C)N1CCC(OC2CCN(c3ccc(C(=O)N(C)C)cc3)CC2)CC1 [Example E12]
9,< 10,CC(C)NC(=O)c1cc(N2CCC(OC3CCN(C4CCC4)CC3)CC2)ccn1 [Example E67]
10,≤ 1,CC(C)N1CCC(OC2CCN(c3ccc(-c4cnco4)cc3)CC2)CC1 [Example E30]

# Test system: not given
# Experiment: not given
# Settings: not given
row,melting point [°C],Structure (SMILES)
1,109.7,"CNC(=O)c1ccc(N2CCC(OC3CCN(C4CCC4)CC3)CC2)cn1 [Example E38A, 5-{4-[(1-Cyclobutyl-4-piperidinyl)oxy]-1-piperidinyl}-N-methyl-2-pyridinecarboxamide]"
